The results in this text go back to article PMC4008261, “Rewiring of regenerated axons by combining treadmill training with semaphorin3A inhibition” (Molecular Brain, 2014).

For orientation: pIC50 means the IC50 on a negative log10 scale, so that one unit is a factor of ten.

pIC50: −log10 of the molar value.

Data set [1] is described as follows: Stability in a silicone sheet. The class given is physicochemical. The settings on record: compared with SM-216289.
For data set [2], the target named is Chemokine CCR1 (Homo sapiens, UniProt P32246). Briefly: Pharmacological profile: receptor binding assay. The text has this: (§1) Table 1 Pharmacological profile of SM-345431 (part 1) | column: IC50 (μm)
In data set [3] the target is Chemokine CCR5 (Homo sapiens, UniProt P51681). Briefly: Pharmacological profile: receptor binding assay.
Source text: as §1

Data set [4] addresses Chemokine CXCR2 (IL-8B) (Homo sapiens, UniProt P25025). Briefly: Pharmacological profile: receptor binding assay.
Source text: as §1

Data set [5] concerns the target Glucocorticoid (Homo sapiens, UniProt P04150). Description: Pharmacological profile: receptor binding assay.
Source text: as §1

Data set [6] concerns the target Tumor Necrosis Factor (TNF), Non-selective. Briefly: Pharmacological profile: receptor binding assay.
Source text: as §1

For data set [7], the target named is Chemokine CCR4 (Homo sapiens, UniProt P51679). Description: Pharmacological profile: receptor binding assay.
Source text: as §1

Data set [8] concerns the target Chemokine CCR2B (Homo sapiens, UniProt P41597). Description: Pharmacological profile: receptor binding assay.
Source text: as §1

Data set [9] addresses T1, semaphorin3A (Homo sapiens, UniProt Q14563).
T1 sequence (Q14563 21-771): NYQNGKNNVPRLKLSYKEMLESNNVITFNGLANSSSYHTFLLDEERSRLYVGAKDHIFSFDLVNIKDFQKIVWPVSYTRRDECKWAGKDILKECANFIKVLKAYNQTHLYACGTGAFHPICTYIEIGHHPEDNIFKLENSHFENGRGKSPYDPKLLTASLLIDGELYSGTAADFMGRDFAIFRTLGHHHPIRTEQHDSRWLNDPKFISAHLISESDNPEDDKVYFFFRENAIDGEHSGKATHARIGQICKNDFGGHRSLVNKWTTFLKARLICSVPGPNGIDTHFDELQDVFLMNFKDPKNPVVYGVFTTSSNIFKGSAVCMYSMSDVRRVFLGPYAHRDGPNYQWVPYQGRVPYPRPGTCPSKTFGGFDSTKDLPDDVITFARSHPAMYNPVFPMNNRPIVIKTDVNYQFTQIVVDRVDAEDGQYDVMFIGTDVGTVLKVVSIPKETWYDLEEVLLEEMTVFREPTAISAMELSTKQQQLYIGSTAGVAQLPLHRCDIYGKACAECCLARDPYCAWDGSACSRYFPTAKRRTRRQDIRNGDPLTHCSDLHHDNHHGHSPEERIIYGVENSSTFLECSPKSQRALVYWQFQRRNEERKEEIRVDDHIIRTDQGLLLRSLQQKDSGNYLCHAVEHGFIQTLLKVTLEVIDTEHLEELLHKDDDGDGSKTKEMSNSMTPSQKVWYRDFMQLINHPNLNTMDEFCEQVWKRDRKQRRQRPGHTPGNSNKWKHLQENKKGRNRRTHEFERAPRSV
Description: Growth cone collapse assay, E8 chick DRG. On the set-up: expressed in transfected cells; host or cells: COS7. The settings on record: read-out: semaphorin3A inhibiting activity, IC50. The class given is cell-based. As for the experimental part:
The growth cone collapse assay and collagen co-culture experiments were performed as previously described. To examine the effects of SM-345431-silicone, small pieces (2 × 1 × 0.3 mm; approximately 1 mg containing 1 μg of SM-345431) of the SM-345431-silicone or control-silicone were placed in a collagen gel adjacent to E8 chick DRGs and COS7 cell aggregates, as shown in Figure 1C.

Chain of Chemokine CCR1 (P32246 whole entry): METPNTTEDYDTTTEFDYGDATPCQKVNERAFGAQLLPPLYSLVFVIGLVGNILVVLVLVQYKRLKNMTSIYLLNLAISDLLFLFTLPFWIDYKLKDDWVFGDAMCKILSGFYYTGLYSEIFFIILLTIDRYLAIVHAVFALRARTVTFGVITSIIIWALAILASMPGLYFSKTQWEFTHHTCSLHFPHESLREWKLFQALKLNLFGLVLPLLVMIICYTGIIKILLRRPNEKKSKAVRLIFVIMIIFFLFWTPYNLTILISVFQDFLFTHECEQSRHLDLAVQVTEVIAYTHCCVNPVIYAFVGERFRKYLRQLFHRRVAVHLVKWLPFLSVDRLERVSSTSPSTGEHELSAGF
Chain of Glucocorticoid (P04150 whole entry): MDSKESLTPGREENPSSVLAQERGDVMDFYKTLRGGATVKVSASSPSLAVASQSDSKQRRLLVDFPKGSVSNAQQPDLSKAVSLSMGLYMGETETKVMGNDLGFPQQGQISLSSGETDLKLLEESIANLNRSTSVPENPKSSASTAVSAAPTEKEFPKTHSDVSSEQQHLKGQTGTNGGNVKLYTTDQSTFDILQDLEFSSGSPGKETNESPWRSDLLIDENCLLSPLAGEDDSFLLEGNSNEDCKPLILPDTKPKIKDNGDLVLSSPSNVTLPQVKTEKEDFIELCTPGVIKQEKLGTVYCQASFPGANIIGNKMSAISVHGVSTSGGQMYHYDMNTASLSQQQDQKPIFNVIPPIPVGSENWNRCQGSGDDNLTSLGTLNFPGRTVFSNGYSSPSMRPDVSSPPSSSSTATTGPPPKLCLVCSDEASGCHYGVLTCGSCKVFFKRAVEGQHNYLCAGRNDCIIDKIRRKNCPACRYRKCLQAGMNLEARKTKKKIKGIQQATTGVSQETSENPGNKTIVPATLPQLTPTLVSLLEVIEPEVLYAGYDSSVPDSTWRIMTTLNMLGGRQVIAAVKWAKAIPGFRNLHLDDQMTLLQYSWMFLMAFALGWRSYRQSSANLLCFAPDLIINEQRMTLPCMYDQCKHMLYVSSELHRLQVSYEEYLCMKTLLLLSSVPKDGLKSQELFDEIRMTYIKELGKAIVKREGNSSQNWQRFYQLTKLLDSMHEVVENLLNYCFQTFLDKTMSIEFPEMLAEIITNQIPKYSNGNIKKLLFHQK
Chain of Chemokine CXCR2 (IL-8B) (P25025 whole entry): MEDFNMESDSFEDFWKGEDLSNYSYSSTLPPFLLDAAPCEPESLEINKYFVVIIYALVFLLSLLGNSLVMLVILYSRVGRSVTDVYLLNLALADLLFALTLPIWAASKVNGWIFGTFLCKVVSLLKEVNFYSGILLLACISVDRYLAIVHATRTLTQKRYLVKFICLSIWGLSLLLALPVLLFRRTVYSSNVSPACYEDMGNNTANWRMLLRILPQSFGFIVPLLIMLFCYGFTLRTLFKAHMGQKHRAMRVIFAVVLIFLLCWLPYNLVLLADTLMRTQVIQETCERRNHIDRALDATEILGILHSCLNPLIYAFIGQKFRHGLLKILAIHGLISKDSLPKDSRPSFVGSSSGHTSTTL
Chain of Chemokine CCR4 (P51679 whole entry): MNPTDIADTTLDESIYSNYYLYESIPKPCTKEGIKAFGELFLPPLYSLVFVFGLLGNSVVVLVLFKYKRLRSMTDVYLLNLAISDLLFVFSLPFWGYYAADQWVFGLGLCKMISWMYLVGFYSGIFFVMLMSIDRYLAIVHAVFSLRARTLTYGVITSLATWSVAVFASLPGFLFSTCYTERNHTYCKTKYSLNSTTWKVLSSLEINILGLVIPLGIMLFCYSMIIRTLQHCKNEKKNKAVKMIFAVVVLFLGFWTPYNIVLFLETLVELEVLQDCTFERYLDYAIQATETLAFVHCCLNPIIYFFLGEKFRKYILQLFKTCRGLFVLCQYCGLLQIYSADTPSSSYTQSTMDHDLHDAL
Chain of Chemokine CCR5 (P51681 whole entry): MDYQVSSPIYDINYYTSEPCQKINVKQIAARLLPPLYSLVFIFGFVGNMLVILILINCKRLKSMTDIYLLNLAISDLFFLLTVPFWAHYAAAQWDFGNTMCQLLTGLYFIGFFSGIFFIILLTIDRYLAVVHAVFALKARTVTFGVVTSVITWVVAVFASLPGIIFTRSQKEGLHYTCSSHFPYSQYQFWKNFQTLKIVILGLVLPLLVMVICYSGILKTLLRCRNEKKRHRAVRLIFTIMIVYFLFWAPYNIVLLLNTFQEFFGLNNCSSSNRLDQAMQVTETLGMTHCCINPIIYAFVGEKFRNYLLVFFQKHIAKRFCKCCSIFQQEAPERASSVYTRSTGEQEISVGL
Chain of Chemokine CCR2B (P41597 1-360 isoform P41597-2): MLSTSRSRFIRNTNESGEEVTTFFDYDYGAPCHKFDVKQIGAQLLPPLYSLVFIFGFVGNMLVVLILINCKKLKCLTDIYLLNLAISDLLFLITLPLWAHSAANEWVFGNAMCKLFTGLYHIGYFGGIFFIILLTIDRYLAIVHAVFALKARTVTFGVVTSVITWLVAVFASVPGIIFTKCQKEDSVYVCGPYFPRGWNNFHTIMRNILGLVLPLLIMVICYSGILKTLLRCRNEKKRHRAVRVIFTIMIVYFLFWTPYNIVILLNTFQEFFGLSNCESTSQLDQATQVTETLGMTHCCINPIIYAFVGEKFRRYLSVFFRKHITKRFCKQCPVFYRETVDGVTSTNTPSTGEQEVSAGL

Take `CC(=O)c1cc2c(=O)c3c(C(=O)O)c(O)c(O)cc3oc2c(C(C)=O)c1-c1coc2cc(O)c(O)c(C(=O)O)c2c1=O` [SM-345431, Vinaxanthone]: the “stability in a silicone sheet” value in [1] was “better stability in a silicone sheet than SM-216289”. Moreover, the pIC50 in data set [2], in data set [3], in data set [4], in data set [5], in data set [6] and in [7] was under 5.00 in each case. In addition, the pIC50 in [8] was under 5.00; in data set [9], 6.70 to 7.00.
